Assay [1] concerns CCl4-treated WT mice. Kind of assay: CCl4-induced liver damage and inflammation in WT mice. Type of assay: in vivo, mouse (C57BL/6J). To be noted: SC1 50 mg kg^−1 intraperitoneally twice. From the text:
All protocols for animal procedures were approved by the Ethics Committee of Animal Experiments in accordance with the Internal Regulations on Animal Experiments at Keio University and Suntory Holdings Ltd, which are based on the Law for the Humane Treatment and Management of Animals (Law No. 105, 1 October 1973, as amended on 30 May 2014). Male C57BL/6J wild-type (WT) mice were purchased from CLEA Japan Inc. (Tokyo, Japan). WT and ANX A1-KO mice at 7 to 9 weeks of age received an intraperitoneal injection of vehicle (corn oil, 16.7 mL kg^−1) or CCl4 (50 μL kg^−1). To evaluate the effect of sesamin, vehicle (olive oil, 5 mL kg^−1) or sesamin (25 mg kg^−1) was orally administered twice at 1 h before and 7 h after CCl4 injection. To evaluate the effect of SC1, vehicle (ethanol dissolved in corn oil at a ratio of 1:19, 5 mL kg^−1) or SC1 (50 mg kg^−1) was intraperitoneally administered twice as mentioned above. Mice were euthanized after 12 or 24 h […] CCl4 injection before collecting blood and liver samples. Plasma AST, ALT, or LDH were measured using L-type AST J2, L-type ALT J2 or L-type LD J (Wako, Osaka, Japan), respectively. The liver tissues were fixed with 10% formalin, embedded in paraffin sectioned to 3–4 μm thickness and mounted on slides. Liver sections were de-paraffinized with xylene and re-hydrated with alcohols. The staining was performed with eosin solution for the cytoplasm and Mayer’s haematoxylin solution or monoclonal galectin-3 antibody (1:100, BioLegend, CA, USA). Slides were observed under a light microscope (BX52, Olympus, Japan), and images were analysed using LUMINA VISION (Mitani Corporation, Japan).
Production of TNFα or MCP-1 in the plasma or liver was measured using a V-PLEX Proinflammatory Panel 1 Mouse Kit or U-PLEX Mouse MCP-1 assay Kit (Meso Scale Diagnostics, USA), respectively. Plasma or liver tissues homogenised in phosphate-buffered saline (Nacalai Tesque) were applied into the pre-coated plate with antibodies against target proteins before labelling with secondary antibodies conjugated to chemiluminescence. The signal intensity was measured using an analyser (SECTOR Imager 6000, Meso Scale Diagnostics, USA).
Total RNA of the liver was extracted using an RNeasy Mini Kit (Qiagen, USA), and the cDNAs were prepared using High-Capacity cDNA Reverse Transcription Kits (Thermo Fisher Scientific, USA). Quantitative reverse transcription-PCR was performed according to the manufacturer’s instructions using the TaqMan® Gene Expression Assay System (Applied Biosystems, USA) with a 7900HT Fast Real Time PCR System (Applied Biosystems, USA). The levels of target mRNAs were normalised using the expression of the 18S ribosomal RNA. The primer IDs are listed in Supplementary Table 1.

In assay [2] the target is T1, ANX A1 (Homo sapiens, UniProt P04083).
T1 construct: The ANX A1 cDNA fragment, full-length (1–346 a.a.) or deletion mutants; GST (pGEX-6P-1) (N, cleaved yes); made in house; host or cells: Escherichia coli BL21 (DE3)
T1 sequence (P04083 1-346): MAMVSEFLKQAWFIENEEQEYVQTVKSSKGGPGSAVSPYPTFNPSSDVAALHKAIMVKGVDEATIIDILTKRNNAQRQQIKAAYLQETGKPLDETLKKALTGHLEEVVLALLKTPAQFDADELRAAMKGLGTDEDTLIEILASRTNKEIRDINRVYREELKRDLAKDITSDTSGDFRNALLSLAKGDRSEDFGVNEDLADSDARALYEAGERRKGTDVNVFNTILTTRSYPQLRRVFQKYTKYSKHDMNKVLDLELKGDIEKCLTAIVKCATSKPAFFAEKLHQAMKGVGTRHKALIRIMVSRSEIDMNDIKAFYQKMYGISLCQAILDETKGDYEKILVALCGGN
Kind of assay: Isothermal titration calorimetry (ITC) binding to ANX A1. As for the experimental part: ITC experiments were performed at 298 K with ITC buffer (20 mmol L^−1 Tris-HCl (pH 7.5), 100 mmol L^−1 NaCl, 2% dimethyl sulfoxide) using a MicroCal iTC200 (Malvern). SC1 or SC2 were dissolved at 2 mmol L^−1 with ITC buffer and titrated into 1 μmol L^−1 of ANX A1 protein with or without 2 mmol L^−1 EDTA (for apo-ANX A1) or 3 mmol L^−1 CaCl2 (for Ca^2+-bound ANX A1). The titration was performed by injecting 2 µL of the syringe solution at intervals of 120 s. The binding isotherms were analysed using SEDPHAT.[54]
(Isothermal titration calorimetry measures the heat released or taken up as one component is titrated into another.)

Assay [3] concerns phosphorylated (Ser27) ANX A1 in U937 cells. Kind of assay: ANX A1 Ser27 phosphorylation in U937 cells (western blotting). Type of assay: cell-based, human. The method, then:
For analyses of ANX A1 phosphorylation, the U937 cells treated as above were lysed with NP40 lysis buffer (20 mmol L^−1 Tris-HCl (pH 7.5), 150 mmol L^−1 NaCl, 1% NP40), and the lysates (10 μg) were subjected to SDS-PAGE, followed by western blotting using antibodies against ANX A1 or phosphorylated (Ser27) ANX A1 (dilution: 1:1000).
(Immunoblotting shows a protein as a band on a membrane.)

SMILES strings stand for the structures. pKd: −log10 of the molar value.

One may read the pKd as the Kd on a negative log10 scale, so that one unit is a factor of ten. Regarding `Oc1ccc(C2OCC3C(c4ccc5c(c4)OCO5)OCC23)cc1O` (stereo not drawn) [SC1, (7α,7′α,8α,8′α)-3′,4′-methylenedioxy-7,9′:7′,9-diepoxylignane-3,4-diol], in assay [1] (12 h after CCl4, WT), the “MCP-1 expression in the liver” value is “suppressed” and the “TNFα expression in the liver” value is given as “suppressed”. Further, in assay [1] (24 h, WT), the “plasma ALT” value is “suppressed”, the “plasma AST” value is recorded as “suppressed” and the “plasma LDH” value was “suppressed”. In assay [2] (3 mmol L^-1 Ca^2+, ITC), this compound registered a dH of -452.11 kcal/mol and a dS of -1491.41 cal/mol K. The pKd in assay [2] (Ca^2+ form of ANX A1, 3 mmol L^-1 CaCl2, ITC, 298 K, read-out: binding affinity (Kd)) is 5.56. In addition, in assay [2] (Ca^2+ free (EDTA), ITC), the “binding to apo-ANX A1” value is “No binding”. In addition, the “ANX A1 phosphorylation at Ser27” value in assay [3] (after PMA and LPS treatment, dose-dependent, 12 h) is reported as “significantly induced phosphorylation”. Besides, the “ANX A1 phosphorylation at Ser27” value in assay [3] (without PMA and LPS stimulation) is reported as “not observed”.

The values above are taken from PMC7033200, “Annexin A1 accounts for an anti-inflammatory binding target of sesamin metabolites” (NPJ Science of Food, 2020).
